Assay results as given in ChEMBL document CHEMBL5465560, “Selectivity Literature for EUbOPEN Chemogenomic Library” (2024).

How the values were obtained:
[1] = target: DNA (cytosine-5)-methyltransferase 1 (Homo sapiens) (UniProt P26358); settings: at 1 µM
[2] = target: Serine/threonine-protein kinase 32A (Homo sapiens) (UniProt Q8WU08); assay: Selectivity interaction (KinomeScan (DiscoverX)) EUB0000595a STK32A; settings: at 10 µM
[3] = target: Serine/threonine-protein kinase MRCK alpha (Homo sapiens) (UniProt Q5VT25); assay: Selectivity interaction (Ambit KINOMEscan) EUB0000092b CDC42BPA; settings: at 10 µM
[4] = target: T1, Mitogen-activated protein kinase kinase kinase 12 (Homo sapiens) (UniProt Q12852); assay: Selectivity interaction (Ambit KINOMEscan and KiNATiv profiling in Jurkat cells) EUB0000090b MAP3K12; format: cell-based; settings: at 1 µM
T1 sequence (whole entry): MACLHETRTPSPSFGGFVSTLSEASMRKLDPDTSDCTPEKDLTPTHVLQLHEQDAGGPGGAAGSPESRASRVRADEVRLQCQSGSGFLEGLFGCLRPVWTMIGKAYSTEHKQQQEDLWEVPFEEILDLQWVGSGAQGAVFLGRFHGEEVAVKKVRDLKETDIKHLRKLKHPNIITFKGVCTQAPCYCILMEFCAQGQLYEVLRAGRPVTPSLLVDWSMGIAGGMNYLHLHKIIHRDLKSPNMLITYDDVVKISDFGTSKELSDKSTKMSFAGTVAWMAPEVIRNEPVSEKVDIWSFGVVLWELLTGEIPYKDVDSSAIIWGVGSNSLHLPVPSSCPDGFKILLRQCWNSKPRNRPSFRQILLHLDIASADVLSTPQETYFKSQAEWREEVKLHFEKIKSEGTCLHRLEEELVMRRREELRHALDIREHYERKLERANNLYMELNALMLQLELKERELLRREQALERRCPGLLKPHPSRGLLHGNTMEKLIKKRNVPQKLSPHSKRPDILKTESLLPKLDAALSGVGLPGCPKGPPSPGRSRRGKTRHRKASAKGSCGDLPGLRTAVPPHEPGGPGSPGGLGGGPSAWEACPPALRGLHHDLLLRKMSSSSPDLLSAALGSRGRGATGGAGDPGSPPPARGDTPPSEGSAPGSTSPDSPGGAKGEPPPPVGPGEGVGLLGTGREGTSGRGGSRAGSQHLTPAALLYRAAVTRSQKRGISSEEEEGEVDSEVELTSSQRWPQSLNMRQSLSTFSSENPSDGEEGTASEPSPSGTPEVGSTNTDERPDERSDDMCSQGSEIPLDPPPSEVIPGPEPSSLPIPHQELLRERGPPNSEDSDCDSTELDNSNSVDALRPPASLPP

[5] = target: T2, Serine/threonine-protein kinase DCLK2 (Homo sapiens) (UniProt Q8N568); assay: Selectivity interaction (KinomeScan (DiscoverX)) EUB0000045b DCLK2
T2 sequence (whole entry): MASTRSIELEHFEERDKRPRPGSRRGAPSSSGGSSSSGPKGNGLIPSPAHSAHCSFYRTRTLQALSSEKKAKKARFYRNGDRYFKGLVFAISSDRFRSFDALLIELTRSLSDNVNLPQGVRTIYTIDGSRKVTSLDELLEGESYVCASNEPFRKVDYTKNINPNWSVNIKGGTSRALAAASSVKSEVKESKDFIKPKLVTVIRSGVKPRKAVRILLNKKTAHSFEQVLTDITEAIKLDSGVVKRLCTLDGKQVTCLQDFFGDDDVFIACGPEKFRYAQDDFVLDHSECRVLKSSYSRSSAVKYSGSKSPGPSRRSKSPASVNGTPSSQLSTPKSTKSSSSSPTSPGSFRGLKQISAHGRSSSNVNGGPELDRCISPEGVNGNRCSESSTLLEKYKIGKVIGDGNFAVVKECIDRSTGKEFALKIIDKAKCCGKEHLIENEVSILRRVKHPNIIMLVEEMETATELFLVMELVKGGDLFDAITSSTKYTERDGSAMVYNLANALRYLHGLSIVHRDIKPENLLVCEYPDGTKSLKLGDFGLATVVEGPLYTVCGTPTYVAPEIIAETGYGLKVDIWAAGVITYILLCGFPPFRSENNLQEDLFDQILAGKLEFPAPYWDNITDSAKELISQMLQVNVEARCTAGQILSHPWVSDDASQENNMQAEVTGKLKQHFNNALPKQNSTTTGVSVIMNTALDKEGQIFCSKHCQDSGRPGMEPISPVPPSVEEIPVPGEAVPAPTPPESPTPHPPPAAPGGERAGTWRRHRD

[6] = target: Dual specificity protein kinase CLK1 (Homo sapiens, UniProt P49759); assay: Selectivity interaction (KinomeScan (DiscoverX)) EUB0001619a CLK1; settings: at 1 µM
[7] = target: T3, Inhibitor of nuclear factor kappa-B kinase subunit epsilon (Homo sapiens) (UniProt Q14164); assay: Selectivity interaction (ActivX KiNativ screen (ex vivo kinase selectivity in human PBMCs)) EUB0001619a IKBKE; format: cell-based; settings: PBMC, at 1 µM
T3 sequence (whole entry): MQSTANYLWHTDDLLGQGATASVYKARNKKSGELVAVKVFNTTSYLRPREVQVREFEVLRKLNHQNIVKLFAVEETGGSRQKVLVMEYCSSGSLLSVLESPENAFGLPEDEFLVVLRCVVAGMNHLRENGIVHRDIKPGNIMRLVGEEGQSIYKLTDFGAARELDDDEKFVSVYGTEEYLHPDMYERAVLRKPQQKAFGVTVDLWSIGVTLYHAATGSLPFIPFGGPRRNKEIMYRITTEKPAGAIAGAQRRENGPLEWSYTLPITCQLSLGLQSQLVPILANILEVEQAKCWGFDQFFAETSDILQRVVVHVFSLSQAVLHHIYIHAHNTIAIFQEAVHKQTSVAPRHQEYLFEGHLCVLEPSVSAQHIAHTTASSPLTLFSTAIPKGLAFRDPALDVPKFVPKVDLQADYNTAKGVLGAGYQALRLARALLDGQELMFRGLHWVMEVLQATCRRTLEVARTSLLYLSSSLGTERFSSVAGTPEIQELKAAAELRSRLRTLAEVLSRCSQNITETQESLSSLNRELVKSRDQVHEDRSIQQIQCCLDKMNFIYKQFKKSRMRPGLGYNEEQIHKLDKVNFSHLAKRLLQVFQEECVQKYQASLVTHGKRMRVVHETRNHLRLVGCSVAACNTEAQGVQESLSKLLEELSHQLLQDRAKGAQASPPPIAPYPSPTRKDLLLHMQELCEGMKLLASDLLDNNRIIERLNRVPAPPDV

[8] = target: Homeodomain-interacting protein kinase 3 (Homo sapiens, UniProt Q9H422); assay: Selectivity interaction (KinomeScan (DiscoverX)) EUB0001619a HIPK3; settings: at 1 µM
Focal adhesion kinase 1 = Focal adhesion kinase 1 (Homo sapiens, UniProt Q05397); assay: Selectivity interaction (KinomeScan (DiscoverX)) EUB0000655a PTK2; settings: at 10 µM
[9] = target: Glutamate receptor ionotropic, NMDA 2B (Homo sapiens) (UniProt Q13224); assay: Selectivity interaction (Panel of kinases, GPCRs, ion channels and transporters (enzymatic assay)) EUB0000223bCl GRIN2B

DNA (cytosine-5)-methyltransferase 1 (Homo sapiens), sequence (P26358 whole entry): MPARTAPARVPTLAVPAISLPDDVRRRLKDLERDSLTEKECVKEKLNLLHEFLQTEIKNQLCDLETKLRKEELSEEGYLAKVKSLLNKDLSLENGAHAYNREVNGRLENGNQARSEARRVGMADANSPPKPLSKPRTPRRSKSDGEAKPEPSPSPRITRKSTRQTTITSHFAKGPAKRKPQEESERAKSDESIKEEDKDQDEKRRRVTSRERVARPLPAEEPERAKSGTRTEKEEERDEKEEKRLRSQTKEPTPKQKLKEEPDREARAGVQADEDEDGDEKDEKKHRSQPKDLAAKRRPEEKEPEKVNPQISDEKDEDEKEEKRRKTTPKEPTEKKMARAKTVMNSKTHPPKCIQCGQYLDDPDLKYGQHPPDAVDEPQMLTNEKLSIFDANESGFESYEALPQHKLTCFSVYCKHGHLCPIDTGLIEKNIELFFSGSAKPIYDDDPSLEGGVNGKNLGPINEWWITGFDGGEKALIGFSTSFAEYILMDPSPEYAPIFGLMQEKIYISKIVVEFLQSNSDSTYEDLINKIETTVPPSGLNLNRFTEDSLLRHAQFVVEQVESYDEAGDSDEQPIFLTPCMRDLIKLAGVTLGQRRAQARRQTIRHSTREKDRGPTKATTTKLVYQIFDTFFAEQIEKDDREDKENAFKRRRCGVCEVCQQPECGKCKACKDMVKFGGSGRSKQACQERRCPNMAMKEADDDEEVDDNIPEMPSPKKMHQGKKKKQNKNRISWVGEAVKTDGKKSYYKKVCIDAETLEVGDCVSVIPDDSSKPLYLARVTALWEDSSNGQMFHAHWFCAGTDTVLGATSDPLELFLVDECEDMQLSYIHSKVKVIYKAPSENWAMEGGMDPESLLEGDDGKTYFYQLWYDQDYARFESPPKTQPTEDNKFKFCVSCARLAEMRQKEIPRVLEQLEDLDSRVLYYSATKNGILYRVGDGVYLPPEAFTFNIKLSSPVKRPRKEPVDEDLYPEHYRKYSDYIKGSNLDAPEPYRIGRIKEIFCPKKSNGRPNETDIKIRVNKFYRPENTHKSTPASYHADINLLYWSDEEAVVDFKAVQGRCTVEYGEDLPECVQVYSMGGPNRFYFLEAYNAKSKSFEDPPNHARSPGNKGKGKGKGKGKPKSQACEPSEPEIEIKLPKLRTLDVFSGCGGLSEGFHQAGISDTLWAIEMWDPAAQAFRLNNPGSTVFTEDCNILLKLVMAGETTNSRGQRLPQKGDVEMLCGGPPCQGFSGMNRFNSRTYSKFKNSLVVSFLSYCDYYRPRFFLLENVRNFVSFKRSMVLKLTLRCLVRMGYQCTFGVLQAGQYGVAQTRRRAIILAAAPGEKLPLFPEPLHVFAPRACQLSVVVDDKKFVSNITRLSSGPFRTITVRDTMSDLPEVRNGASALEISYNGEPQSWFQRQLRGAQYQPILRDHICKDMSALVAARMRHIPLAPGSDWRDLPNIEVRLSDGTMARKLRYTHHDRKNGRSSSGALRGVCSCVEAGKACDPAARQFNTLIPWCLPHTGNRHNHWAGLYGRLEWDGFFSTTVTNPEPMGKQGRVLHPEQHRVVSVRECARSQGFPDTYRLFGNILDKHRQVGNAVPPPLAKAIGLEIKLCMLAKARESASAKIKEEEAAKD
Dual specificity protein kinase CLK1, sequence (P49759 whole entry, looked up): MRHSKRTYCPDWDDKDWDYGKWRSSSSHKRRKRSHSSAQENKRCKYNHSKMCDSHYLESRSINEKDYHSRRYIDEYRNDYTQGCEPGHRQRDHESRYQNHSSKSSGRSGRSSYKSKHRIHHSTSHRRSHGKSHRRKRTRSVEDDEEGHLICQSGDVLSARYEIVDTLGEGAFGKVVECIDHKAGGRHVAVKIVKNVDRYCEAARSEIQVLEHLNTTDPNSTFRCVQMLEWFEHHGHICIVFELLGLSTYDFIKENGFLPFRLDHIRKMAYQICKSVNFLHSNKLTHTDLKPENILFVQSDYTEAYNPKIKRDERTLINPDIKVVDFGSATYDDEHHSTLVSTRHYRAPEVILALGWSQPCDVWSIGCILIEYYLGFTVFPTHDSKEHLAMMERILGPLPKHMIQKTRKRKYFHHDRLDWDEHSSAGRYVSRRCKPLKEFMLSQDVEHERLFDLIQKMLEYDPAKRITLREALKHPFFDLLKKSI
Serine/threonine-protein kinase 32A (Homo sapiens), sequence (Q8WU08 whole entry): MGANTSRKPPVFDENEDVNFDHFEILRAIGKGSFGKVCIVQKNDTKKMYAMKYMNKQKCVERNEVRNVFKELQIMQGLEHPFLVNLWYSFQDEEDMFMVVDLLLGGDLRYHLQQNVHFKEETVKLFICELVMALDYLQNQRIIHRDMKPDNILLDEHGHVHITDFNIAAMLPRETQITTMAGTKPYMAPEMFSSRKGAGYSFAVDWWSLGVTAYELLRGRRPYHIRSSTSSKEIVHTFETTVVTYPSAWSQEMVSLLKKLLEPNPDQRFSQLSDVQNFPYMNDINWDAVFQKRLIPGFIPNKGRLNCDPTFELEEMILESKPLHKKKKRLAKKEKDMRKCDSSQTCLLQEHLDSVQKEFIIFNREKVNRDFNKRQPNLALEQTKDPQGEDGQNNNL
Homeodomain-interacting protein kinase 3, sequence (Q9H422 whole entry, looked up): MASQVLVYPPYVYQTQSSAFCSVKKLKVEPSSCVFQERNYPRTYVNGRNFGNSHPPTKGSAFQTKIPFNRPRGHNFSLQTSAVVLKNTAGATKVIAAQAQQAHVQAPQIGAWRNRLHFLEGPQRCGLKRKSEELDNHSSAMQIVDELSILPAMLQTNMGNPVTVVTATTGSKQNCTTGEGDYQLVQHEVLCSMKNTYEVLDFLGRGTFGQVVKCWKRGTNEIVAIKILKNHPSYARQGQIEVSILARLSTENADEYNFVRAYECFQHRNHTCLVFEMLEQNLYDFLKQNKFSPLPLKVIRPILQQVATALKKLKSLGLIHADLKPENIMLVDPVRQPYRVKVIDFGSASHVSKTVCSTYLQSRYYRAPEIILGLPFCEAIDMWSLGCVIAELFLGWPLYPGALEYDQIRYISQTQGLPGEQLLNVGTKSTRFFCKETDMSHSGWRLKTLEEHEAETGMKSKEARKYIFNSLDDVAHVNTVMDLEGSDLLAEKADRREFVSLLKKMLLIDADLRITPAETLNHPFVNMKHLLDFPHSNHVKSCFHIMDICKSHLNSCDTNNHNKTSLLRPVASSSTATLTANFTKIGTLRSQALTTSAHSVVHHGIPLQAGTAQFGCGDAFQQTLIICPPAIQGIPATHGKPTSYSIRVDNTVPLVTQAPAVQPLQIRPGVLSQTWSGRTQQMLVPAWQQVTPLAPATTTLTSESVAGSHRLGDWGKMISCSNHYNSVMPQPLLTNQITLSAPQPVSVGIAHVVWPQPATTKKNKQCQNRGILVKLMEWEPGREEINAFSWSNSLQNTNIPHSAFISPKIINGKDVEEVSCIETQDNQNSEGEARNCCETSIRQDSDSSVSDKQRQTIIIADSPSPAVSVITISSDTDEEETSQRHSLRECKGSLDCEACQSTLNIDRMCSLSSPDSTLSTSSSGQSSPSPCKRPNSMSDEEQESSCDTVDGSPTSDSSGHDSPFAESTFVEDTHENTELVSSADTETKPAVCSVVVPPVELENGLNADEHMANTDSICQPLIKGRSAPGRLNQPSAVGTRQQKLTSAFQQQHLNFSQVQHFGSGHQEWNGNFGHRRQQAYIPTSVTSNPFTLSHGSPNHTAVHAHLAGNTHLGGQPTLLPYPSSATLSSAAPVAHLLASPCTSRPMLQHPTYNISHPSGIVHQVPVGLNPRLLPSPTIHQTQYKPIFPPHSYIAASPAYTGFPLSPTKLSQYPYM
Focal adhesion kinase 1, sequence (Q05397 2-1052 limits assumed): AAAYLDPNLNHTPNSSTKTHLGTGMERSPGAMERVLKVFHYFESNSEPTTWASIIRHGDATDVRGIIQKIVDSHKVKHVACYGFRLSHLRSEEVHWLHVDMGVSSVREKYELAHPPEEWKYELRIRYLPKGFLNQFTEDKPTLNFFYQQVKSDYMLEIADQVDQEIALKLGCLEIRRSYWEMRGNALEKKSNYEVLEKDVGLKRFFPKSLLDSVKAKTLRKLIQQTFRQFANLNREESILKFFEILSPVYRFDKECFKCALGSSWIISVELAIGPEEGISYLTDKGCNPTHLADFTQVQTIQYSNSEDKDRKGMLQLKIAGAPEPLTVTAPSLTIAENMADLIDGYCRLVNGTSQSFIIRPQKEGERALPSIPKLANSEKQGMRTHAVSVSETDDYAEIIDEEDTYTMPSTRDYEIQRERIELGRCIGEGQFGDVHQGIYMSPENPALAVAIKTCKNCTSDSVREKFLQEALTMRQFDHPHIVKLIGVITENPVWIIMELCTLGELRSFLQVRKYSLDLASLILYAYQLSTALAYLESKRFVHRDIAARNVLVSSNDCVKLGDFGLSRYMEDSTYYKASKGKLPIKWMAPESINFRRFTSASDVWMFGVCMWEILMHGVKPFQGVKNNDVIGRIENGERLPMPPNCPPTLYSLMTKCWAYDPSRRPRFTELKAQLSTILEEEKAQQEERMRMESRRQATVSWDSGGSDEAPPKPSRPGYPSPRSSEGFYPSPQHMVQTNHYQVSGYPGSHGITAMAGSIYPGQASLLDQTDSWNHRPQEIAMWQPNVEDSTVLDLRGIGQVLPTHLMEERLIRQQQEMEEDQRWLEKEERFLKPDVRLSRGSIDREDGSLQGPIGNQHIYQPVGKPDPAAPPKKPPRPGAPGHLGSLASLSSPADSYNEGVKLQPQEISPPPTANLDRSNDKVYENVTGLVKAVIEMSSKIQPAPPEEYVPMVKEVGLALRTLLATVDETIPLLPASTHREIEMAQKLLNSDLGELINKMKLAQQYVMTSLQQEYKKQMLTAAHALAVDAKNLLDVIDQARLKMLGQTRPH

CNCCN1CCC(c2cc(CN(C)C(=O)c3cccc(Oc4ccccc4)c3)ccn2)CC1
% activity [1]: > 85%

COCC(=O)NC/C=C/c1ccc2ncnc(Nc3ccc(Oc4ccc(C)nc4)c(C)c3)c2c1 [CP-724714]
% of control [2]: 100%

CCC(=O)N1CCN(c2ccc(-n3c(=O)ccc4cnc5ccc(-c6cnc7ccccc7c6)cc5c43)cc2C(F)(F)F)CC1
% of control [3]: 0.65%

CN(C)C/C=C/C(=O)Nc1ccc(C(=O)N2CCCC(Nc3ncc(Cl)c(-c4c[nH]c5ccccc45)n3)C2)cc1 (stereo unspecified)
% of control [4]: 89%

C=CC(=O)Nc1cc(-n2c(=O)ccc3cnc4ccc(-c5ccc(NS(C)(=O)=O)cc5)cc4c32)ccc1C
% of control ([5]; at 1 µM): 100%
% of control ([5]; at 10 µM): 100%

N#Cc1cccc(-c2c[nH]c3ncnc(N4CCOCC4)c23)c1
% of control [6]: 63%
% of inhibition [7]: 7%
% of control [8]: 47%

CN(C)CCOc1ccc(-c2nc(-c3ccncc3)c(-c3ccc4c(c3)CC/C4=N\O)[nH]2)cc1
% of control (Focal adhesion kinase 1): 100%

COc1cc(C(=O)N2CC[C@@H](O)[C@@H](N)C2)cc2nc(-c3cc4ccccc4n3CC3CC3)n(C)c12
pXC50 [9]: 4.8 M
